This passage reports IC50 and GI50 results from patent publication US20240010635A1, “NOVEL INDIRUBIN DERIVATIVES HAVING HETEROBICYCLIC MOIETIES AND THE USE THEREOF” (priority 2022, published 2024).

One test has as its target T1, FLT3 D835Y (Homo sapiens, UniProt P36888, D835Y).
T1 construct: Recombinant proteins containing the FLT3 and FLT3 (D835Y) domains were purchased from Promega; purchased Promega V4514
T1 sequence (P36888 610-943 D835Y limits assumed): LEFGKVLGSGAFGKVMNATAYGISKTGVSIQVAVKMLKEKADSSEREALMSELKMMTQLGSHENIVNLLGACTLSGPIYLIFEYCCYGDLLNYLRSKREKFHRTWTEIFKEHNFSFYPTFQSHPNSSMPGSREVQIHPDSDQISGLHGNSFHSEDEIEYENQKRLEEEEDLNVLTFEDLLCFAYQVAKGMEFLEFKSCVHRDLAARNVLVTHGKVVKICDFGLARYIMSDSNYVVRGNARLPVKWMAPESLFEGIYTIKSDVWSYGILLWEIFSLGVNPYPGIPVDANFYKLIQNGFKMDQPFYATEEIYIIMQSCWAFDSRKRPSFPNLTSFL
Kind of test: ADP-Glo kinase assay, FLT3 D835Y. The format is biochemical. Conditions: recombinant FLT3 (D835Y), 120 min room temperature, read-out: Enzyme activity (IC50, nM) FLT3 D835Y. The method, then: FLT3 activity inhibition was measured by ADP-Glo kinase assay (Promega, cat #V9101). ADP-Glo kinase analysis method is an emission ADP detect method which measures kinase activity by quantification of ADP amount produced during kinase reaction and provides uniform high-throughput screening method.
Analysis performed in two steps. First, after kinase reaction, ADP-Glo™ reagent of equal volume was added to finish kinase reaction, and then the rest ATP was exhausted. Second, Kinase Detection Reagent was added to convert ADP to ATP and newly synthesized ATP was measured by luciferase/luciferin reaction at the same time. Generated light was measured by using luminometer. The measured luminescence amount can be applied to the ATP→ADP standard conversion curve to confirm the correlation with the ADP concentration.
Recombinant proteins containing the FLT3 and FLT3 (D835Y) domains were purchased from Promega (cat #V4064, cat #V4514), respectively. According to the manufacturer's instructions, optimal enzyme, ATP, and substrate concentration were established using the ADP-Glo™ Kinase Assay (Promega, USA). Kinase reaction buffer 5× (200 mM Tris-HCl, pH 7.5, 100 mM MgCl2, 0.5 mg/ml BSA) was diluted and used, and the diluted compound of the present invention (5×, 1 μl), FLT3 enzyme or FLT3/D835Y enzyme (2.5×, 2 μl) and substrate/ATP mixture (2.5×, 2 μl), were mixed sequentially and reacted at room temperature for 120 minutes. Then, ADP-Glo™ Reagent (5 μl) was added and reacted for 40 min at room temperature. Finally, after adding a reagent for detection (Kinase Detection Reagent, 10 μl), reacting at room temperature for 30 min, and then phosphorylation of substrate peptide was measured by measuring luciferase signal (Integration time 0.5-1 second) using SpectraMax ID5 reader (Molecular Devices LLC., San Jose, CA, USA). IC50 was calculated by nonlinear regression using Prism version 5.01 (GrapghPad).

A further test has as its system Molm-14. Kind of test: Cell proliferation inhibition in AML cell line Molm-14 (Alamar Blue). It counts as cell-based. Conditions: Homo sapiens, Molm-14, 72 hours, pM, read-out: Cell proliferation inhibitory activity (GI50) Molm-14. The text has this: (§1) Cell proliferation inhibition experiments on acute myeloid leukemia (AML) cell lines tested FLT3 inhibitory activity using MV4-11, Molm-13, and Molm-14 cells, which are FLT3-ITD-expressed AML cell lines. The origin of all cell lines is human-derived cell lines, and the place of purchase and culture conditions of each cell line are as follows.
(§2) MV4-11 cells were purchased form the American Type Culture Collection (ATCC, Rockville, MD, USA, cat #CRL-9591), Molm-13 (DSMZ, cat #ACC554), Molm-14 (DSMZ, cat #ACC777), and then cultured in RPMI 1640 medium (Corning Co. 10-040-CV) supplemented with 10% fetal bovine serum, 1% penicillin/streptomycin and 4 mM L-glutamine (Life Technology, GrandIsland, NY).
(§3) Cell viability was evaluated by Resazurin redox-based analysis method with Alamar Blue Assay Kit (Invitrogen, USA). Specifically, for MV4-11, Molm-13 and Molm-14 cells, 8000 cells were plated on 384-well plates in 45 μl of medium. Compounds were treated with dimethyl sulfoxide (DMSO) as a negative control group. After 3 days (72 hours) of compound addition, 5 μl of Alamar Blue kit reagent was added to each well of 384-well plate and incubated at 37° C. for 2 hours in a humidified CO2 incubator. After incubation, fluorescence density (Flu) was measured at a wavelength of 544 nm and 590 nm using SpectraMax iD3 Multi Mode Microplate Reader (Molecular Devices, ID3-STD). GI50 was calculated by nonlinear regression using Prism version 5.01 (GraphPad, LaJolla, CA, USA).
(In general: Resazurin is reduced to fluorescent resorufin, in cell work by metabolically active cells.)

The next test deals with Molm-13. Kind of test: Cell proliferation inhibition in AML cell line Molm-13 (Alamar Blue). The format is cell-based. The note with it: Homo sapiens, Molm-13, 72 hours, pM, read-out: Cell proliferation inhibitory activity (GI50) Molm-13.
Source text: as §1, §2, §3

The test system of the next test is MV4-11. Kind of test: Cell proliferation inhibition in AML cell line MV4-11 (Alamar Blue). The note with it: Homo sapiens, MV4-11, 72 hours, pM, read-out: Cell proliferation inhibitory activity (GI50) MV4-11. The format is cell-based.
Source text: as §1, §2, §3

On to `O=C1Nc2ccc(Br)cc2/C1=C1/Nc2ccccc2/C1=N\OCCN1C[C@H]2C[C@@H]1CN2` [Example 13, (2Z,3E)-3-((2-((1R,4R)-2,5-diazabicyclo[2.2.1]heptan-2-yl)ethoxy)imino)-5′-bromo-[2,3′-biindolinylidene]-2′-one], for which the IC50 on FLT3 D835Y was found to be 0.686 nM. For the same molecule, the GI50 in the test with Molm-14 was determined as 170 pM; with Molm-13 it was 200 pM; with MV4-11, 61 pM.

As a reminder, the IC50 is the point on the concentration scale where inhibition reaches its midpoint.
